# Test results as given in patent US20200268768A1, “CENICRIVIROC COMBINATION THERAPY FOR THE TREATMENT OF FIBROSIS” (Tobira Therapeutics, Inc., priority 2015, published 2020).
# Where “and” joins values, the source holds several entries; their conditions need not be identical. Identical values can stand only once.
# Columns and labels:
# [1] = tested on: STAM mouse model of Non-alcoholic Steatohepatitis; experiment: STAM mouse model of NASH, anti-NASH/fibrosis effects at week 9; assay type: in vivo, mice; parameters: key to Hepatocyte ballooning score 0, number of mice / Hepatocyte ballooning score 1, number of mice: 0: None; 1: Few balloon cells; 2: Many cells/prominent ballooning; TNF-a mRNA expression level / MCP-1 mRNA expression level / Collagen Type 1 mRNA expression level / TIMP-1 mRNA expression level: scale not given here; settings: for Collagen Type 1 mRNA expression level / MCP-1 mRNA expression level / TIMP-1 mRNA expression level / TNF-a mRNA expression level: liver, quantitative RT-PCR; for Collagen Type 1 mRNA expression level / MCP-1 mRNA expression level / TIMP-1 mRNA expression level / TNF-a mRNA expression level / Body weight / F4/80-positive area (inflammation area) / F4/80 and CD206-positive cells / F4/80 and CDE 16/32-positive cells / Liver hydroxyproline / Liver triglyceride / Liver weight / Liver-to-body weight ratio / M1/M2 ratio / NAFLD Activity Score (NAS) / Oil red-positive area (fat deposition area) / Plasma ALT / Plasma MCP-1 / TUNEL-positive cells / Whole blood glucose / Sirius red-positive area (fibrosis area) / Modified Sirius red-positive rea: mean ± SD; for Sirius red-positive area (fibrosis area): perivascular space included; for Modified Sirius red-positive rea: perivascular space subtracted
# Protocol: NASH was induced in male mice by a single injection of 200 μg streptozotocin 2 days after birth (causing impaired glucose control), followed by a high fat diet from 4 weeks of age. […] Animals were sacrificed at 9 weeks of age, and biochemical, gene expression, and histologic evaluations of the liver were conducted. This in vivo efficacy study was performed to examine the effects of Cenicriviroc in the STAM™ mouse model of Non-alcoholic Steatohepatitis. […] [table]
# [2] = tested on: thioacetamide (TAA)-induced hepatic fibrosis; experiment: Rat model of thioacetamide-induced liver fibrosis and cirrhosis; assay type: in vivo, Sprague-Dawley rats; settings: for Reduction of ca-SMA / Reduction of collagen type 1 protein levels / Reduction of fibrosis by collagen morphometry: first 8 weeks
# Protocol: Fibrosis was induced in male Sprague-Dawley rats by intraperitoneal administration of TAA 150 mg/kg 3 times/week for 8 weeks. […] Biochemical, gene expression and histologic evaluations of the liver were conducted.
# [3] = CVC-high 100 mg/kg/day oral, listed as Cenicriviroc
# [4] = CVC-low 20 mg/kg/day oral, listed as Cenicriviroc
# [5] = Group 1a: CVC 30 mg/kg/day concurrently with TAA
# [6] = Group 1b: CVC 100 mg/kg/day concurrently with TAA
smiles,measurement,setting,value
"CCCCOCCOc1ccc(-c2ccc3c(c2)C=C(C(=O)Nc2ccc([S@@+]([O-])Cc4cncn4CCC)cc2)CCCN3CC(C)C)cc1 [CVC, (S)-8-[4-(2-Butoxyethoxy)phenyl]-1-isobutyl-N-(4-{[(1-propyl-1H-imidazol-5-yl)methyl]sulfinyl}phenyl)-1,2,3,4-tetrahydro-1-benzazocine-5-carboxamide]",Decrease of collagen type 1 mRNA in whole liver lysates,"[1]; CVC 20 and 100 mg/kg/day, real-time RT-PCR",27-37%
same,Collagen Type 1 mRNA expression level,[1]; CVC-high 100 mg/kg/day oral,0.73±0.04
same,MCP-1 mRNA expression level,[1]; CVC-high 100 mg/kg/day oral,1.00±0.53
same,TIMP-1 mRNA expression level,[1]; CVC-high 100 mg/kg/day oral,0.80±0.20
same,TNF-a mRNA expression level,[1]; CVC-high 100 mg/kg/day oral,1.09±0.23
same,Collagen Type 1 mRNA expression level,[1]; [3],0.73 ± 0.04
same,MCP-1 mRNA expression level,[1]; [3],1.00 ± 0.53
same,TIMP-1 mRNA expression level,[1]; [3],0.80 ± 0.20
same,TNF-a mRNA expression level,[1]; [3],1.09 ± 0.23
same,Body weight,[1]; CVC-high 100 mg/kg/day oral,18.7 ± 0.9 g
same,F4/80-positive area (inflammation area),[1]; CVC-high 100 mg/kg/day oral,4.96±0.60%
same,F4/80 and CD206-positive cells,[1]; CVC-high 100 mg/kg/day oral,33.1±3.0%
same,F4/80 and CDE 16/32-positive cells,[1]; CVC-high 100 mg/kg/day oral,41.5±8.2%
same,Liver hydroxyproline,[1]; CVC-high 100 mg/kg/day oral,0.62±0.09 ug/mg total protein
same,Liver triglyceride,[1]; CVC-high 100 mg/kg/day oral,51.7±14.1 mg/g liver
same,Liver weight,[1]; CVC-high 100 mg/kg/day oral,1307 ± 119 mg
same,Liver-to-body weight ratio,[1]; CVC-high 100 mg/kg/day oral,7.0±0.8%
same,M1/M2 ratio,[1]; CVC-high 100 mg/kg/day oral,125.1±21.9%
same,NAFLD Activity Score (NAS),[1]; CVC-high 100 mg/kg/day oral,3.7±0.8
same,Oil red-positive area (fat deposition area),[1]; CVC-high 100 mg/kg/day oral,7.23±3.59%
same,Plasma ALT,[1]; CVC-high 100 mg/kg/day oral,51±13 U/L and 52±13 U/L
same,Plasma MCP-1,[1]; CVC-high 100 mg/kg/day oral,91 ± 14 pg/mL
same,TUNEL-positive cells,[1]; CVC-high 100 mg/kg/day oral,39.0±5.3%
same,Whole blood glucose,[1]; CVC-high 100 mg/kg/day oral,585 ± 91 mg/dL
same,Body weight,[1]; [3],18.7 ± 0.9 g
same,F4/80-positive area (inflammation area),[1]; [3],4.96 ± 0.60%
same,F4/80 and CD206-positive cells,[1]; [3],33.1 ± 3.0%
same,F4/80 and CDE 16/32-positive cells,[1]; [3],41.5 ± 8.2%
same,Liver hydroxyproline,[1]; [3],0.62 ± 0.09 ug/mg total protein
same,Liver triglyceride,[1]; [3],51.7 ± 14.1 mg/g liver
same,Liver weight,[1]; [3],1307 ± 119 mg
same,Liver-to-body weight ratio,[1]; [3],7.0 ± 0.8%
same,M1/M2 ratio,[1]; [3],125.1 ± 21.9%
same,NAFLD Activity Score (NAS),[1]; [3],3.7 ± 0.8
same,Oil red-positive area (fat deposition area),[1]; [3],7.23 ± 3.59%
same,Plasma ALT,[1]; [3],52 ± 13 U/L
same,Plasma MCP-1,[1]; [3],91 ± 14 pg/mL
same,TUNEL-positive cells,[1]; [3],39.0 ± 5.3%
same,Whole blood glucose,[1]; [3],585 ± 91 mg/dL
same,Sirius red-positive area (fibrosis area),[1]; [3],0.64 ± 0.19%
same,Modified Sirius red-positive rea,[1]; [3],0.20 ± 0.06%
same,"Modified positive area, per mouse","[1]; CVC-high 100 mg/kg/day, Sirius red, individual mice 301-306, listed as Cenicriviroc",0.18% and 0.20% and 0.12% and 0.26% and 0.17% and 0.27%
same,"Modified positive area, per photo","[1]; CVC-high 100 mg/kg/day, Sirius red, individual mice 301-306, photos 1-5, listed as Cenicriviroc",0.26% and 0.06% and 0.10% and 0.41% and 0.09% (2×) and 0.23% (2×) and 0.17% (2×) and 0.28% (2×) and 0.22% (2×) and 0.08% (3×) and 0.05% and 0.32% and 0.07% (3×) and 0.16% and 0.20% (2×) and 0.68% and 0.27% and 0.12% and 0.11% and 0.67%
same,"Hepatocyte ballooning score 0, number of mice","[1]; CVC-high 100 mg/kg/day, n=6",1
same,"Hepatocyte ballooning score 1, number of mice","[1]; CVC-high 100 mg/kg/day, n=6",2
same,"Hepatocyte ballooning score 2, number of mice","[1]; CVC-high 100 mg/kg/day, n=6",3
same,"Lobular inflammation score 1, number of mice","[1]; CVC-high 100 mg/kg/day, n=6",3 (>4 foci/200x)
same,"Lobular inflammation score 2, number of mice","[1]; CVC-high 100 mg/kg/day, n=6",3 (>4 foci/200x)
same,"Steatosis score 0, number of mice","[1]; CVC-high 100 mg/kg/day, n=6",1 (5-33%)
same,"Steatosis score 1, number of mice","[1]; CVC-high 100 mg/kg/day, n=6",5
same,Collagen Type 1 mRNA expression level,[1]; CVC-low 20 mg/kg/day oral,0.63±0.10
same,MCP-1 mRNA expression level,[1]; CVC-low 20 mg/kg/day oral,1.05±0.50
same,TIMP-1 mRNA expression level,[1]; CVC-low 20 mg/kg/day oral,0.75±0.32
same,TNF-a mRNA expression level,[1]; CVC-low 20 mg/kg/day oral,1.16±0.39
same,Collagen Type 1 mRNA expression level,[1]; [4],0.63 ± 0.10
same,MCP-1 mRNA expression level,[1]; [4],1.05 ± 0.50
same,TIMP-1 mRNA expression level,[1]; [4],0.75 ± 0.32
same,TNF-a mRNA expression level,[1]; [4],1.16 ± 0.39
same,Body weight,[1]; CVC-low 20 mg/kg/day oral,19.5 ± 2.0 g
same,F4/80-positive area (inflammation area),[1]; CVC-low 20 mg/kg/day oral,4.77±1.02%
same,F4/80 and CD206-positive cells,[1]; CVC-low 20 mg/kg/day oral,34.7±6.3%
same,F4/80 and CDE 16/32-positive cells,[1]; CVC-low 20 mg/kg/day oral,38.7±7.6%
same,Liver hydroxyproline,[1]; CVC-low 20 mg/kg/day oral,0.63±0.05 ug/mg total protein
same,Liver triglyceride,[1]; CVC-low 20 mg/kg/day oral,48.5±16.1 mg/g liver
same,Liver weight,[1]; CVC-low 20 mg/kg/day oral,1334 ± 99 mg
same,Liver-to-body weight ratio,[1]; CVC-low 20 mg/kg/day oral,6.9±1.0%
same,M1/M2 ratio,[1]; CVC-low 20 mg/kg/day oral,112.3±17.0%
same,NAFLD Activity Score (NAS),[1]; CVC-low 20 mg/kg/day oral,4.0±0.6
same,Oil red-positive area (fat deposition area),[1]; CVC-low 20 mg/kg/day oral,6.51±3.88%
same,Plasma ALT,[1]; CVC-low 20 mg/kg/day oral,58±12 U/L
same,Plasma MCP-1,[1]; CVC-low 20 mg/kg/day oral,68 ± 16 pg/mL
same,TUNEL-positive cells,[1]; CVC-low 20 mg/kg/day oral,43.3±2.9%
same,Whole blood glucose,[1]; CVC-low 20 mg/kg/day oral,585 ± 91 mg/dL
same,Body weight,[1]; [4],19.5 ± 2.0 g
same,F4/80-positive area (inflammation area),[1]; [4],4.77 ± 1.02%
same,F4/80 and CD206-positive cells,[1]; [4],34.7 ± 6.3%
same,F4/80 and CDE 16/32-positive cells,[1]; [4],38.7 ± 7.6%
same,Liver hydroxyproline,[1]; [4],0.63 ± 0.05 ug/mg total protein
same,Liver triglyceride,[1]; [4],48.5 ± 16.1 mg/g liver
same,Liver weight,[1]; [4],1334 ± 99 mg
same,Liver-to-body weight ratio,[1]; [4],6.9 ± 1.0%
same,M1/M2 ratio,[1]; [4],112.3 ± 17.0%
same,NAFLD Activity Score (NAS),[1]; [4],4.0 ± 0.6
same,Oil red-positive area (fat deposition area),[1]; [4],6.51 ± 3.88%
same,Plasma ALT,[1]; [4],58 ± 12 U/L
same,Plasma MCP-1,[1]; [4],68 ± 16 pg/mL
same,TUNEL-positive cells,[1]; [4],43.3 ± 2.9%
same,Whole blood glucose,[1]; [4],585 ± 91 mg/dL
same,Sirius red-positive area (fibrosis area),[1]; [4],0.66 ± 0.16%
same,Modified Sirius red-positive rea,[1]; [4],0.29 ± 0.14%
same,"Hepatocyte ballooning score 1, number of mice","[1]; CVC-low 20 mg/kg/day, n=6",3
same,"Hepatocyte ballooning score 2, number of mice","[1]; CVC-low 20 mg/kg/day, n=6",3
same,"Lobular inflammation score 1, number of mice","[1]; CVC-low 20 mg/kg/day, n=6",3 (>4 foci/200x)
same,"Lobular inflammation score 2, number of mice","[1]; CVC-low 20 mg/kg/day, n=6",3 (>4 foci/200x)
same,"Steatosis score 1, number of mice","[1]; CVC-low 20 mg/kg/day, n=6",6
same,Increase in plasma monocyte chemotactic protein-1 levels,[1]; high dose 100 mg/kg/day,1.5 fold
same,Increase in plasma monocyte chemotactic protein-1 levels,[1]; low dose 20 mg/kg/day,1.1 fold
same,Reduction of ca-SMA,[2]; [5],17%
same,Reduction of collagen type 1 protein levels,[2]; [5],30%
same,Reduction of fibrosis by collagen morphometry,[2]; [5],49%
same,Reduction of ca-SMA,[2]; [6],22%
same,Reduction of collagen type 1 protein levels,[2]; [6],12%
same,Reduction of fibrosis by collagen morphometry,[2]; [6],38%
same,Reduction in collagen,[2]; Group 2a: CVC 30 mg/kg/day during Weeks 4-8 (emerging fibrosis),36%
same,Effect on fibrogenic gene expression or fibrosis,"[2]; Group 3: treatment Weeks 8-12, cirrhosis present",no significant effect of CVC on fibrogenic gene expression or fibrosis
